The record followed here is ChEMBL document CHEMBL1140113, “Structural requirements for drug inhibition of the liver specific human organic cation transport protein 1” (J Med Chem, 2008).

Molecules are shown by their SMILES. pIC50: −log10 of the molar value.

One data set addresses T1, OCT1 (SLC22A1) (Homo sapiens, UniProt O15245).
T1 sequence (O15245 whole entry): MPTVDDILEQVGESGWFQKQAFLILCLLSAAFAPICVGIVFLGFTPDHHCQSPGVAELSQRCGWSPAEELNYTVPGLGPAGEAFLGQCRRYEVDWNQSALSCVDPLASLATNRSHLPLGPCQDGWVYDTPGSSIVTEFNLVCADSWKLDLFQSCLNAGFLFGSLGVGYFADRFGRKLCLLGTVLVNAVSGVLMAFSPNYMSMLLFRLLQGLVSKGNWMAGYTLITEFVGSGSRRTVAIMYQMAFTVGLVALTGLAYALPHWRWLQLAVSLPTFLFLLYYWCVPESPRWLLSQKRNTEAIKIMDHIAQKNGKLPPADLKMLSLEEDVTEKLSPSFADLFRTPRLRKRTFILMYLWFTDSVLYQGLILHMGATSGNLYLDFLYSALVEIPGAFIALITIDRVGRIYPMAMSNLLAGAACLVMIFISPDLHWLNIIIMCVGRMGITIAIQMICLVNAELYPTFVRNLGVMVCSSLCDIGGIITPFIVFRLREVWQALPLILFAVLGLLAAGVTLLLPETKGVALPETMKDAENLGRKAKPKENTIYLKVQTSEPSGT
Put plainly: in vitro.

The target of data set [1] is T2, Solute carrier family 22 member 1 (Homo sapiens, UniProt O15245).
T2 sequence (O15245 whole entry): T1 sequence (O15245 whole entry)
The data set is classed as cell-based, HEK293.

The mark [2] stands for this setting: HEK293 cells that express human OCT1, probe 4-(4-(dimethylamino)styryl)-N-methylpyridinium.

As for `CC(COc1ccccc1)N(CCCl)Cc1ccccc1` (centres undefined) [PHENOXYBENZAMINE], the inhibition at 100 µM against OCT1 (SLC22A1) (setting [2]) stood at 56.7%. Besides, in data set [1], the pIC50 was 4.82.

As for `CC12CC3CC(C)(C1)CC(N)(C3)C2` [MEMANTINE], at OCT1 (SLC22A1) (setting [2]), the inhibition at 100 µM was 58.6%. The pIC50 in data set [1] was 4.57.

Consider `CNCCCN1c2ccccc2CCc2ccccc21` [DESIPRAMINE], for which, at OCT1 (SLC22A1) (hek293), the inhibition at 100 µM stood at 84.3%. The molecule also had a pIC50 in data set [1] of 4.25.

As to `CC(CN1c2ccccc2Sc2ccccc21)N(C)C` (centres undefined) [PROMETHAZINE], at OCT1 (SLC22A1) (setting [2]), the inhibition at 100 µM turned out to be 71.1%. Besides, the pIC50 in data set [1] was 4.45.

For `COc1cccc(C2(O)CCCCC2CN(C)C)c1` (centres undefined) [TRAMADOL], the inhibition at 100 µM on OCT1 (SLC22A1) (setting [2]) was determined as 60.2%. The pIC50 in data set [1] was 4.28.

As to `CN1CCN(CCCN2c3ccccc3Sc3ccc(Cl)cc32)CC1` [PROCHLORPERAZINE], at OCT1 (SLC22A1) (setting [2]), the inhibition at 100 µM worked out at 66.5%. Further, the pIC50 in data set [1] is 4.30.

In the case of `CN(C)CCCN1c2ccccc2CCc2ccc(Cl)cc21` [CLOMIPRAMINE], the inhibition at 100 µM against OCT1 (SLC22A1) (setting [2]) came out at 85.3%. The molecule further gave a pIC50 in data set [1] of 4.71.

With `CN(C)CCCN1c2ccccc2Sc2ccccc21` [PROMAZINE], the inhibition at 100 µM against OCT1 (SLC22A1) (setting [2]) came to 79.2%. This molecule showed a pIC50 in data set [1] of 4.76.

As to `CCOc1cc(CC(=O)N[C@@H](CC(C)C)c2ccccc2N2CCCCC2)ccc1C(=O)O` [REPAGLINIDE], the inhibition at 100 µM at OCT1 (SLC22A1) (setting [2]) turned out to be 76.4%. Moreover, in data set [1], the pIC50 was 5.04.

As for `COc1cc(NS(C)(=O)=O)ccc1Nc1c2ccccc2nc2ccccc12` [AMSACRINE], the inhibition at 100 µM on OCT1 (SLC22A1) (setting [2]) came to 68.4%. Moreover, in data set [1], the pIC50 was 5.30.

Regarding `CN1CCc2cccc3c2[C@H]1Cc1ccc(O)c(O)c1-3` [APOMORPHINE], the inhibition at 100 µM against OCT1 (SLC22A1) (setting [2]) turned out to be 69%. Moreover, the pIC50 in data set [1] is 4.68.

Consider `CN(C)CCCN1c2ccccc2Sc2ccc(Cl)cc21` [CHLORPROMAZINE], for which, on OCT1 (SLC22A1) (setting [2]), the inhibition at 100 µM was found to be 85.1%. The same molecule had a negative logarithm of the IC50 (pIC50) in data set [1] of 4.57.

Consider `C=CCOc1ccccc1OCC(O)CNC(C)C` (centres undefined) [OXPRENOLOL], for which the inhibition at 100 µM on OCT1 (SLC22A1) (hek293) was 61.5%. The same molecule showed a pIC50 in data set [1] of 4.54.

`CC(C)(Cc1c[nH]c2ccccc12)NCC(O)COc1ccccc1C#N` (centres undefined) [BUCINDOLOL]: at OCT1 (SLC22A1) (setting [2]), the inhibition at 100 µM stood at 84.6%. The negative-log IC50 (pIC50) in data set [1] was 4.57.

With `CN1CCC[C@@H]1CCO[C@](C)(c1ccccc1)c1ccc(Cl)cc1` [CLEMASTINE], at OCT1 (SLC22A1) (setting [2]), the inhibition at 100 µM turned out to be 78.8%. In data set [1], this molecule showed a pIC50 of 5.31.

As to `C[N+]1(C)CCCC(OC(=O)C(O)(c2ccccc2)c2ccccc2)C1` (centres undefined) [MEPENZOLATE BROMIDE], on OCT1 (SLC22A1) (setting [2]), the inhibition at 100 µM was 59.5%. The same molecule gave a pIC50 in data set [1] of 4.19.

Consider `COc1ccc(CCNC[C@H](O)c2ccc(O)cc2)cc1OC` [DENOPAMINE], for which, at OCT1 (SLC22A1) (hek293), the inhibition at 100 µM turned out to be 51.5%. Besides, the pIC50 in data set [1] was 4.33.

For `CN(C)C(=O)C(CCN1CCC(O)(c2ccc(Cl)cc2)CC1)(c1ccccc1)c1ccccc1` [LOPERAMIDE], the inhibition at 100 µM against OCT1 (SLC22A1) (hek293) came to 73.4%. Moreover, the pIC50 in data set [1] was 4.63.

For `Clc1cccc(Cl)c1N=C1NCCN1` [CLONIDINE], on OCT1 (SLC22A1) (hek293), the inhibition at 100 µM came to 65.4%. The molecule also had a pIC50 in data set [1] of 4.65.

In the case of `COc1ccc([C@@H]2Sc3ccccc3N(CCN(C)C)C(=O)[C@@H]2OC(C)=O)cc1` [DILTIAZEM], the inhibition at 100 µM on OCT1 (SLC22A1) (setting [2]) amounted to 65.5%. The molecule further gave a pIC50 in data set [1] of 4.91.

`CN(C)CC/C=C1/c2ccccc2Sc2ccc(Cl)cc21` [CHLORPROTHIXENE]: on OCT1 (SLC22A1) (setting [2]), the inhibition at 100 µM is 65.4%. For the same molecule, in data set [1], the pIC50 was 4.11.

For `CCN(CC)CCNC(=O)c1cc(Cl)c(N)cc1OC` [METOCLOPRAMIDE], the inhibition at 100 µM at OCT1 (SLC22A1) (setting [2]) was 52.3%. The molecule further had a pIC50 in data set [1] of 4.02.

As to `COc1cc2nc(N3CCN(C(=O)C4CCCO4)CC3)nc(N)c2cc1OC` (centres undefined) [TERAZOSIN], the inhibition at 100 µM on OCT1 (SLC22A1) (setting [2]) was determined as 77%. Also, the pIC50 in data set [1] was 4.63.

In the case of `CN(C)CCCN1c2ccccc2CCc2ccccc21` [IMIPRAMINE], the inhibition at 100 µM against OCT1 (SLC22A1) (hek293) amounted to 82.8%. The molecule further showed a pIC50 in data set [1] of 4.77.

With `CCCNCC(O)COc1ccccc1C(=O)CCc1ccccc1` (centres undefined) [PROPAFENONE], the inhibition at 100 µM at OCT1 (SLC22A1) (setting [2]) was found to be 83.8%. The pIC50 in data set [1] was 4.95.

As to `CC(C)NCC(O)COc1cccc2ccccc12` (centres undefined) [PROPRANOLOL], the inhibition at 100 µM at OCT1 (SLC22A1) (setting [2]) was 55.4%. Moreover, the pIC50 in data set [1] is 4.20.

With `CN(C)CCCC1(c2ccc(F)cc2)OCc2cc(C#N)ccc21` (centres undefined) [CITALOPRAM], the inhibition at 100 µM against OCT1 (SLC22A1) (hek293) was found to be 52%. The same molecule gave a pIC50 in data set [1] of 4.73.

As to `CN1CC[C@]23c4c5ccc(O)c4O[C@H]2[C@@H](O)C=C[C@H]3[C@H]1C5` [MORPHINE], the inhibition at 100 µM against OCT1 (SLC22A1) (setting [2]) stood at 67.9%. The molecule also showed a pIC50 in data set [1] of 4.55.

For the molecule `O=C(CCCN1CCC(O)(c2ccc(Cl)cc2)CC1)c1ccc(F)cc1` [HALOPERIDOL], the inhibition at 100 µM at OCT1 (SLC22A1) (setting [2]) came out at 67.1%. This molecule also showed a pIC50 in data set [1] of 3.85.

Regarding `C[C@]12CC[C@H]3[C@@H](CCC4=CC(=O)CC[C@@H]43)[C@@H]1CC[C@@H]2O` [NANDROLONE], on OCT1 (SLC22A1) (hek293), the inhibition at 100 µM came out at 79.3%. In addition, the pIC50 in data set [1] was 4.45.

In the case of `CN1[C@@H]2C[C@@H](OC(=O)[C@H](CO)c3ccccc3)C[C@H]1[C@@H]1O[C@@H]12` [SCOPOLAMINE], at OCT1 (SLC22A1) (setting [2]), the inhibition at 100 µM was found to be 43.9%.

As for `CC(C)(C)c1ccc(C(O)CCCN2CCC(C(O)(c3ccccc3)c3ccccc3)CC2)cc1` (centres undefined) [TERFENADINE], the inhibition at 100 µM against OCT1 (SLC22A1) (setting [2]) worked out at 65.4%.

In the case of `COc1cc2c(c(OC)c1OC)-c1ccc(OC)c(=O)cc1[C@@H](NC(C)=O)CC2` [COLCHICINE], the inhibition at 100 µM against OCT1 (SLC22A1) (setting [2]) was found to be 31.9%.

In the case of `Nc1nc(O)c2ncn(COC(CO)CO)c2n1` [GANCICLOVIR], on OCT1 (SLC22A1) (setting [2]), the inhibition at 100 µM amounted to 10.5%.

On to `CC1=C(C(=O)O)N2C(=O)[C@@H](NC(=O)[C@H](N)c3ccccc3)[C@H]2SC1` [CEPHALEXIN ANHYDROUS], for which the inhibition at 100 µM on OCT1 (SLC22A1) (setting [2]) was -1.9%.

With `Cc1nc2n(c(=O)c1CCN1CCC(c3noc4cc(F)ccc34)CC1)CCCC2` [RISPERIDONE], the inhibition at 100 µM against OCT1 (SLC22A1) (setting [2]) is 39.3%.

Turning to `CN1CC(=O)NC1=N` [CREATININE], the inhibition at 100 µM at OCT1 (SLC22A1) (setting [2]) was found to be 13.3%.

For the molecule `COc1ccc(Cl)cc1C(=O)NCCc1ccc(S(=O)(=O)NC(=O)NC2CCCCC2)cc1` [GLYBURIDE], at OCT1 (SLC22A1) (setting [2]), the inhibition at 100 µM is 0.3%.

Consider `CC[C@H](C)C(=O)O[C@H]1C[C@H](O)C=C2C=C[C@H](C)[C@H](CC[C@@H](O)C[C@@H](O)CC(=O)O)[C@H]21` [PRAVASTATIN], for which, on OCT1 (SLC22A1) (setting [2]), the inhibition at 100 µM worked out at 5%.

For `CC(=O)N[C@H]1[C@H]([C@H](O)[C@H](O)CO)OC(C(=O)O)=C[C@@H]1N=C(N)N` [ZANAMIVIR], the inhibition at 100 µM against OCT1 (SLC22A1) (setting [2]) was determined as 2%.

Regarding `O=c1[nH]cc(F)c(=O)[nH]1` [FLUOROURACIL], the inhibition at 100 µM against OCT1 (SLC22A1) (setting [2]) was 0.9%.

In the case of `Cc1cccc(CN2CCN(C(c3ccccc3)c3ccc(Cl)cc3)CC2)c1` (centres undefined) [MECLIZINE], the inhibition at 100 µM at OCT1 (SLC22A1) (setting [2]) is 16.4%.

`CCCC(C)(COC(N)=O)COC(=O)NC(C)C` (centres undefined) [CARISOPRODOL]: the inhibition at 100 µM on OCT1 (SLC22A1) (setting [2]) worked out at 19.8%.

As for `COC(=O)CCc1ccc(OCC(O)CNC(C)C)cc1` (centres undefined) [ESMOLOL], the inhibition at 100 µM on OCT1 (SLC22A1) (setting [2]) was 31.2%.

Regarding `COc1cc(C(O)CN)ccc1O` (racemic) [NORMETANEPHRINE], on OCT1 (SLC22A1) (setting [2]), the inhibition at 100 µM was -2.4%.

With `NS(=O)(=O)c1cc(C(=O)O)c(NCc2ccco2)cc1Cl` [FUROSEMIDE], at OCT1 (SLC22A1) (setting [2]), the inhibition at 100 µM worked out at 11.7%.

Take `CCCC(=O)Nc1ccc(OCC(O)CNC(C)C)c(C(C)=O)c1` (centres undefined) [ACEBUTOLOL]: the inhibition at 100 µM against OCT1 (SLC22A1) (setting [2]) was 40.9%.

For the molecule `CCC[C@@H]1C[C@@H](C(=O)N[C@@H]([C@H]2O[C@H](SC)[C@H](O)[C@@H](O)[C@H]2O)[C@H](C)Cl)N(C)C1` [CLINDAMYCIN], the inhibition at 100 µM against OCT1 (SLC22A1) (setting [2]) turned out to be 19.5%.

On to `CC(C)NC[C@H](O)c1ccc(O)c(O)c1`, for which the inhibition at 100 µM against OCT1 (SLC22A1) (setting [2]) came out at 15.6%.
